Experiments:
[1] = tested on: animal model with osteoporosis; experiment: blood biochemical analysis of bone resorption and bone formation markers (CTX, ALP, RANKL) in animal model with osteoporosis; type: in vivo, mouse; conditions: 4-HR periodically applied to the skin
Procedure: To evaluate the effect of 4-hexylresorcinol (4-HR) on bone resorption and promoting bone formation, the levels of CTX, ALP, and RANKL in an animal model with osteoporosis were measured via blood biochemical analysis. CTX is used as a marker for evaluating the degree of bone resorption (bone destruction) in the blood, ALP is a marker that indicates the degree of bone formation secreted by osteoblasts, and RANKL is used as a marker that is secreted from osteoblasts and promotes differentiation of osteoclasts.

osteoclasts [2] = experiment: osteoclast differentiation by TRAP staining; type: cell-based; set-up: dose or concentration left out as unconfirmed; conditions: mouse bone marrow cells with M-CSF and RANKL, 4 days, 4-HR
Procedure: Mouse bone marrow monocyte (BMM) cells were isolated from the femur and tibia in 8-week-old mice. Muscle was removed after the separation of the femur and tibia from the mice euthanized by cervical dislocation, both ends were cut out, and α-MEM was filtered with a syringe to separate bone marrow cells. After centrifuging the isolated bone marrow cells, red blood cell lysis solution was added to hemolyze red blood cells, and then culture was performed for a day in the α-MEM containing 10% (v/v) FBS, penicillin (100 units/ml), and streptomycin (100 units/ml) using the constant temperature and humidity incubator in the presence of 5% (v/v) CO2 at 37° C. Only suspending cells not adhering to the culture dish were collected, treated with 20 ng/ml of M-CSF, and cultured for 3 days to obtain bone marrow-derived monocyte/macrophage. In an attempt to differentiate macrophages into osteoclasts, 20 ng/ml of M-CSF and 30 ng/ml of RANKL were treated, followed by culture for 4 days. Media were replaced every 2 days while differentiation was induced.
Medullary mononuclear cells isolated from the femur and tibia of mice were treated with 20 ng/ml of M-CSF and reacted for a day. […]

osteoblasts (MC3T3-E1) = experiment: osteoblast differentiation by alkaline phosphatase (ALP) and Alizarin red staining; type: cell-based, mouse; conditions: MC3T3-E1 cells, 4-HR 10^−9 M to 10^−6 M (ALP, 7 days) or 10^−9 M to 10^−4 M (Alizarin red, 14-21 days)
Procedure: MC3T3-E1 (mouse calvaria osteoblast cell line) cells were cultured in α-MEM containing 10% (v/v) FBS, penicillin (100 units/ml), and streptomycin (100 units/ml) using a constant temperature and humidity incubator in the presence of 5% (v/v) CO2 at 37° C. When the culture dish was filled with osteoblasts with 100% confluency, 50 μg/ml of ascorbic acid and 10 mM of β-glycerophosphate were treated to induce cell differentiation. During cell differentiation, the differentiation medium was replaced every 3 days.
MC3T3-E1 and bone marrow stem cells were inoculated into a 48-well multi-plate at 5×10^4 cells/well, and culture was performed for 7 days with treatment of 4-hexylresorcinol (4-HR) at a concentration of 10^−9 M to 10^−6 M while a differentiation induction medium was replaced every 2 days. After the culture, cells were washed with PBS three times, and a fixative containing 5 ml of citrate acid, 13 ml of acetone, and 1.6 ml of a formaldehyde solution was treated for 45 seconds. Then, the cells were washed twice with PBS, treated with an alkaline-dye mixture, and reacted at room temperature in the darkness for 30 minutes. After removing the solution, cells were washed several times with PBS and observed under a microscope. […]

[3] = tested on: osteoporosis (OVX) induced mice; experiment: micro-CT analysis of femur bone in ovariectomy (OVX) osteoporosis mouse model after 4-HR ointment application; type: in vivo; conditions: ointment containing 2% 4-HR applied to dorsal skin for 4 weeks, compared to osteoporosis (OVX) induced mice
Procedure: After separating the mouse femur and removing muscle, fixation was performed using 4% PFA at 4° C. for a day. The next day, washing was followed three times with PBS solution to be stored in PBS. The femur stored thereby was analyzed with a Skysan 1272 (Bruker, Massachusetts, USA) model by scanning, in units of 6 μm, the section from 1.6 mm to 2.3 mm below the growth plate. Using micro-CT, during the measurement of trabecular bone volume/tissue volume (BV/TV), trabecular thickness (Tb.Th), trabecular number (Tb.N), trabecular separation (Tb.Sp), and trabecular bone mineral density (BMD), bone volume/tissue volume (BV/TV) and bone mineral density (BMD) of cortical bone was measured as well.
To evaluate the effect of 4-hexylresorcinol (4-HR) on bone remodeling, the ointment containing 2% 4-HR was applied to the mouse dorsal skin for 4 weeks after induction of osteoporosis via ovariectomy (OVX) in a model with osteoporosis, and the change in bone volume was analyzed by micro-CT.

osteoclasts [4] = experiment: osteoclastic activity by Pit assay on bone slices; type: cell-based, mouse; conditions: differentiated osteoclasts on bone slices, treated with 4-HR for 2 days
Procedure: Monocytes were sterilized and inoculated on bone slices placed on a 96-well plate, followed by culture for 3 days in the presence of RANKL (30 ng/ml) and M-CSF (30 ng/ml). After 3 days, the differentiated osteoclasts were treated with 4-hexylresorcinol (4-HR), and a culture was performed for 2 days. After 2 days of culture, osteoclasts were removed and bone slices were reacted with horseradish peroxidase-wheat germ agglutinin (Sigma-Aldrich) and then stained with 3,3′-diaminobenzidine (Sigma-Aldrich). Stained cells were analyzed according to the manufacturer's method using a Java-based image analysis program (ImageJ).
To evaluate the effect of 4-hexylresorcinol (4-HR) on the differentiation and activity of osteoclasts, 4-hexylresorcinol (4-HR) was treated on osteoclasts, and cell differentiation and osteoclastic activity were checked by TRAP staining and PIT assay analysis.

Compound: CCCCCCc1ccc(O)cc1O [4-hexylresorcinol (4-HR), 4-hexylbenzene-1,3-diol]
- level of ALP (bone formation marker in blood) [1]: increased
- level of CTX (bone resorption marker in blood) [1]: decreased
- differentiation of osteoclasts (TRAP staining) (osteoclasts [2]): inhibited
- differentiation of osteoblasts (ALP and Alizarin red staining) (osteoblasts (MC3T3-E1)): differentiation was promoted
- bone density [3]: increased
- bone volume [3]: increased
- trabecular number [3]: increased
- trabecular thickness [3]: increased
- osteoclastic activity (PIT assay) (osteoclasts [4]): inhibited

From US12508237B2, “Pharmaceutical composition comprising 4-hexylresorcinol as active ingredient for prevention or treatment of bone disease” (KYUNGPOOK NATIONAL UNIVERSITY INDUSTRY-ACADEMIC COOPERATION …, priority 2019, dated 2025)
